Columns and labels:
THP-1 cells = experiment: Example D: LPS-triggered THP-1 cell death assay, acute/5-hour and chronic/48-hour; type: cell-based, Human; settings: for Viable cell percent change, Chronic/48-hour, Mean: 10 ng/ml LPS, 0.1 μM test compound
Method: Compounds of the invention were tested at 0.1 μM versus AC in the LPS-triggered THP-1 cell death assay. Both acute/5-hour and chronic/48-hour phases of cell death were assessed. Compounds were screened in batches with DMSO as the negative control and AC as the high activity control.

[1] = system: 4T1 murine breast cancer cells; experiment: Example S: in vitro anticancer screen, 4T1 cells, Wst1; type: cell-based, mouse; settings: Mus musculus, 4T1, 18 h, 18 hr, Wst1; for viability at 1 µM: read-out: 4T1 1 μM, percent of cancer cell survival relative to vehicle treated cells; for viability at 5 µM: read-out: 4T1 5 μM, percent of cancer cell survival relative to vehicle treated cells
How it was run: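 4T1 cells seeded at 1×10^4/well were exposed to compound at 1 μM or 5 μM for 18 hr after plating. Wst1 tetrazolium dye was then added for about 2 hr and absorbance read at 450 nm (reference 630 nm). Values are percent survival relative to vehicle-treated cells.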

[2] = system: PC3 human prostate cancer cells; experiment: Example S: in vitro anticancer screen, PC-3 cells, Wst1; type: cell-based; settings: Homo sapiens, PC-3, approximately 20 hours, Wst1, read-out: PC-3, percent of cancer cell survival relative to vehicle treated cells
How it was run: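 PC-3 cells, 2×10^4 cells/well, exposed ~20 h to vehicle or compound at 0.4, 0.5 or 2.5 μM as specified per compound. Wst1 dye added for 2 h; absorbance 450 nm (reference 630 nm), triplicates. Values are percent cell survival versus vehicle-treated cells.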

[3] = system: PC-3 prostate cancer cells; experiment: Example T: sensitisation of PC-3 cells to doxorubicin, oxaliplatin, paclitaxel or vincristine, Wst1; type: cell-based, human; settings: PC-3 cells, 72 hours; for viability at 0.5 µM: compound 0.5 μM alone; for Doxorubicin 3.5 μM: percent cell survival / Oxaliplatin 100 μM: percent cell survival / Paclitaxel 50 μM: percent cell survival / Vincristine 100 nM: percent cell survival: chemotherapy agent alone normalized to 100%; for viability at 2.5 µM: compound 2.5 μM alone; for viability at 0.4 µM: compound 0.4 μM alone
[4] = Homo sapiens, Wst1, vehicle = 100, read-out: No Chemo: percent cell survival
[5] = compound 0.5 μM + doxorubicin 3.5 μM
[6] = compound 0.5 μM + oxaliplatin 100 μM
[7] = compound 0.5 μM + paclitaxel 50 μM
[8] = compound 0.5 μM + vincristine 100 nM
[9] = compound 2.5 μM + doxorubicin 3.5 μM
[10] = compound 2.5 μM + oxaliplatin 100 μM
[11] = compound 2.5 μM + paclitaxel 50 μM
[12] = compound 2.5 μM + vincristine 100 nM
[13] = compound 0.4 μM + doxorubicin 3.5 μM
[14] = compound 0.4 μM + oxaliplatin 100 μM
[15] = compound 0.4 μM + paclitaxel 50 μM
[16] = compound 0.4 μM + vincristine 100 nM

Question: With `CCCCCCCCOCCCCCCn1cnc2cnc3ccccc3c21` [FI, 1-[6-(Octyloxy)hexyl]-1H-imidazo[4,5-c]quinoline] as the compound, how does the “Viable cell percent change, Chronic/48-hour, Mean” value (from here on “Viable cell percent change”) (THP-1 cells) read?
Answer: Its value is 12.70%.

Question: And the viability at 1 µM [1]?
Answer: Its viability at 1 µM is 26.5%.

Question: What about the viability at 5 µM [1] of the same compound?
Answer: The viability at 5 µM was 26.7%.

Question: What about the viability at 0.5 µM [2] of the same compound?
Answer: The viability at 0.5 µM was 35.2%.

Question: What about the viability at 0.5 µM [3, 4] of the same compound?
Answer: Its viability at 0.5 µM is 35.2%.

Question: What about the “Doxorubicin 3.5 μM: percent cell survival” value [3, 5] of the same compound?
Answer: Its value is 79.8%.

Question: What about the “Oxaliplatin 100 μM: percent cell survival” value [3, 6] of the same compound?
Answer: The value was 91.4%.

Question: What about the “Paclitaxel 50 μM: percent cell survival” value [3, 7] of the same compound?
Answer: The value was 84%.

Question: And the “Vincristine 100 nM: percent cell survival” value [3, 8]?
Answer: The value was 73.7%.

Question: With `c1ccc(COc2ccccc2Nc2ccnc3ccccc23)cc1` [DO, N-[2-(Benzyloxy)phenyl]quinolin-4-amine] as the compound, how does the “Viable cell percent change” value (THP-1 cells) read?
Answer: The value was 36.46%.

Question: And the viability at 1 µM [1]?
Answer: The viability at 1 µM was 116%.

Question: And the viability at 5 µM [1]?
Answer: The viability at 5 µM was 35.2%.

Question: And the viability at 2.5 µM [2]?
Answer: Its viability at 2.5 µM is 59.2%.

Question: And the viability at 2.5 µM [3, 4]?
Answer: Its viability at 2.5 µM is 59.2%.

Question: And the “Doxorubicin 3.5 μM: percent cell survival” value [3, 9]?
Answer: The value was 79.9%.

Question: What about the “Oxaliplatin 100 μM: percent cell survival” value [3, 10] of the same compound?
Answer: The value was 89.9%.

Question: And the “Paclitaxel 50 μM: percent cell survival” value [3, 11]?
Answer: Its value is 93.4%.

Question: And the “Vincristine 100 nM: percent cell survival” value [3, 12]?
Answer: Its value is 90.1%.

Question: `CCCCCCOCCCCCCNc1ccnc2ccccc12` [CK, N-[6-(Hexyloxy)hexyl]quinolin-4-amine] was tested. Which “Viable cell percent change” value (THP-1 cells) did it give?
Answer: Its value is 42.23%.

Question: What about the viability at 1 µM [1] of the same compound?
Answer: Its viability at 1 µM is 62.5%.

Question: What about the viability at 5 µM [1] of the same compound?
Answer: Its viability at 5 µM is 45.3%.

Question: What about the viability at 0.5 µM [2] of the same compound?
Answer: The viability at 0.5 µM was 51.4%.

Question: What about the viability at 0.5 µM [3, 4] of the same compound?
Answer: The viability at 0.5 µM was 51.4%.

Question: And the “Doxorubicin 3.5 μM: percent cell survival” value [3, 5]?
Answer: The value was 111.6%.

Question: And the “Oxaliplatin 100 μM: percent cell survival” value [3, 6]?
Answer: The value was 143%.

Question: And the “Paclitaxel 50 μM: percent cell survival” value [3, 7]?
Answer: Its value is 64.2%.

Question: And the “Vincristine 100 nM: percent cell survival” value [3, 8]?
Answer: The value was 138.2%.

Question: Which “activity relative to AC in the LPS-triggered THP-1 cell death assay, in words” value (THP-1 cells; 0.1 μM, 5-hour and 48-hour time points) does the source give for `CCCCCCOCCCCCCCCNc1ncnc2ccccc12` [EW, N-[8-(Hexyloxy)octyl]quinazolin-4-amine] here?
Answer: Its value is “equivalent activity to AC at both the 5-hour and 48-hour time points”.

Question: And the viability at 1 µM [1]?
Answer: The viability at 1 µM was 21.2%.

Question: What about the viability at 5 µM [1] of the same compound?
Answer: The viability at 5 µM was 18.9%.

Question: What about the viability at 0.4 µM [2] of the same compound?
Answer: Its viability at 0.4 µM is 14.1%.

Question: And the viability at 0.4 µM [3, 4]?
Answer: The viability at 0.4 µM was 14.1%.

Question: What about the “Doxorubicin 3.5 μM: percent cell survival” value [3, 13] of the same compound?
Answer: The value was 20%.

Question: What about the “Oxaliplatin 100 μM: percent cell survival” value [3, 14] of the same compound?
Answer: Its value is 16.6%.

Question: And the “Paclitaxel 50 μM: percent cell survival” value [3, 15]?
Answer: Its value is 21.9%.

Question: What about the “Vincristine 100 nM: percent cell survival” value [3, 16] of the same compound?
Answer: Its value is 14.8%.

Question: Which “Viable cell percent change” value (THP-1 cells) does the source give for `c1ccc(Oc2ccccc2Nc2ccnc3ccccc23)cc1` [DF, N-(2-Phenoxyphenyl)quinolin-4-amine] here?
Answer: The value was 39.26%.

Question: What about the viability at 1 µM [1] of the same compound?
Answer: Its viability at 1 µM is 27.1%.

Question: What about the viability at 5 µM [1] of the same compound?
Answer: The viability at 5 µM was 20.8%.

Question: What about the viability at 0.4 µM [2] of the same compound?
Answer: The viability at 0.4 µM was 102%.

Question: And the viability at 0.4 µM [3, 4]?
Answer: Its viability at 0.4 µM is 102%.

Question: What about the “Doxorubicin 3.5 μM: percent cell survival” value [3, 13] of the same compound?
Answer: Its value is 88.7%.

Question: And the “Oxaliplatin 100 μM: percent cell survival” value [3, 14]?
Answer: The value was 96.5%.

Question: And the “Paclitaxel 50 μM: percent cell survival” value [3, 15]?
Answer: The value was 89.4%.

Question: What about the “Vincristine 100 nM: percent cell survival” value [3, 16] of the same compound?
Answer: The value was 95.4%.

Question: For `CCCCCCOc1ccccc1OCCCCNc1ccnc2ccccc12` [CR, N-{4-[2-(Hexyloxy)phenoxy]butyl}quinolin-4-amine], which “Viable cell percent change” value (THP-1 cells) is on record?
Answer: Its value is 40.02%.

Question: What about the viability at 1 µM [1] of the same compound?
Answer: Its viability at 1 µM is 110%.

Question: What about the viability at 5 µM [1] of the same compound?
Answer: Its viability at 5 µM is 31.8%.

Question: And the viability at 2.5 µM [2]?
Answer: Its viability at 2.5 µM is 53.2%.

Question: What about the viability at 2.5 µM [3, 4] of the same compound?
Answer: The viability at 2.5 µM was 53.2%.

Question: And the “Doxorubicin 3.5 μM: percent cell survival” value [3, 9]?
Answer: Its value is 87.6%.

Question: And the “Oxaliplatin 100 μM: percent cell survival” value [3, 10]?
Answer: Its value is 89.3%.

Question: And the “Paclitaxel 50 μM: percent cell survival” value [3, 11]?
Answer: The value was 93.4%.

Question: And the “Vincristine 100 nM: percent cell survival” value [3, 12]?
Answer: The value was 86.9%.

Question: Which results are given for `CCCCCCCCCCCCOCCn1cnc2cnc3ccccc3c21` [FG, 1-[2-(Dodecyloxy)ethyl]-1H-imidazo[4,5-c]quinoline]?
Answer: Viable cell percent change, Chronic/48-hour, Mean (THP-1 cells): 1.15%; viability at 1 µM [1]: 85.7%; viability at 5 µM [1]: 25.5%; viability at 1.5 µM ([2]; 1.5 μM): 39.2%; viability at 1.5 µM ([3]; Homo sapiens, compound 1.5 μM alone, Wst1, vehicle = 100, read-out: No Chemo: percent cell survival): 39.2%; Doxorubicin 3.5 μM: percent cell survival ([3]; compound 1.5 μM + doxorubicin 3.5 μM): 65.7%; Oxaliplatin 100 μM: percent cell survival ([3]; compound 1.5 μM + oxaliplatin 100 μM): 85.5%; Paclitaxel 50 μM: percent cell survival ([3]; compound 1.5 μM + paclitaxel 50 μM): 47.2%; Vincristine 100 nM: percent cell survival ([3]; compound 1.5 μM + vincristine 100 nM): 41%

Reference: patent publication US20250034139A1, “AMINE COMPOUNDS HAVING ANTI-INFLAMMATORY, ANTIFUNGAL, ANTIPARASITIC, AND ANTICANCER ACTIVITY” (PHARMA CINQ, LLC, priority 2013, published 2025)
